Reference: ChEMBL document CHEMBL1129052, “2-[(2-Aminobenzyl)sulfinyl]-1-(2-pyridyl)-1,4,5,6-tetrahydrocyclopent[d]imidazoles as a novel class of gastric H+/K+-ATPase inhibitors” (J Med Chem, 1996)

Experiments:
[1] = biological target: T1, Potassium-transporting ATPase (Rattus norvegicus) (UniProt P09626+P18598); experiment: Effect in vivo on gastric H+/K+ -ATPase activity at 6 hrs following intraduodenal administration of 40 mg/Kg in rats; type: functional, organism-based; details: Stomach
[2] = biological target: T1, Potassium-transporting ATPase (Rattus norvegicus); experiment: Effect in vivo on gastric H+/K+ ATPase activity at 24 hrs following intraduodenal administration of 40 mg/Kg in rats injected intraperitoneally with 1 mg/Kg of cycloheximide; type: functional, organism-based; details: Stomach
[3] = biological target: T1, Potassium-transporting ATPase (Rattus norvegicus); experiment: Gastric antisecretory activity was tested in rats at 30 mg/kg, po expressed as the percentage of inhibition against the acid output of the control group; type: functional, organism-based; set-up: dose 30 mg/kg
[4] = biological target: T1, Potassium-transporting ATPase (Rattus norvegicus); experiment: Effect in vivo on gastric H+/K+ -ATPase activity at 48 hrs following intraduodenal administration of 40 mg/Kg in rats; type: functional, organism-based; details: Stomach
[5] = biological target: T1, Potassium-transporting ATPase (Rattus norvegicus); experiment: Effect in vivo on gastric H+/K+ ATPase activity at 1.5 hrs following intraduodenal administration of 40 mg/Kg in rats; type: functional, organism-based; details: Stomach
[6] = biological target: T1, Potassium-transporting ATPase (Rattus norvegicus); experiment: Effect in vivo on gastric H+/K+ ATPase activity at 48 hrs following intraduodenal administration of 40 mg/Kg in rats injected intraperitoneally with 1 mg/Kg of cycloheximide; type: functional, organism-based; details: Stomach
[7] = biological target: T1, Potassium-transporting ATPase (Rattus norvegicus); experiment: Effect in vivo on gastric H+/K+ -ATPase activity at 24 hrs following intraduodenal administration of 40 mg/Kg in rats; type: functional, organism-based; details: Stomach
[8] = biological target: T1, Potassium-transporting ATPase (Rattus norvegicus); experiment: Effect in vivo on gastric H+/K+ -ATPase activity at 3 hrs following intraduodenal administration of 40 mg/Kg in rats; type: functional, organism-based; details: Stomach
[9] = biological target: Potassium-transporting ATPase (Sus scrofa, UniProt P18434+P19156); experiment: Inhibition of H+/K+ ATPase from porcine gastric mucosal membrane vesicles; type: tissue-based, Gastric mucosa
Potassium-transporting ATPase (Sus scrofa, UniProt P18434+P19156), sequence (P18434 whole entry): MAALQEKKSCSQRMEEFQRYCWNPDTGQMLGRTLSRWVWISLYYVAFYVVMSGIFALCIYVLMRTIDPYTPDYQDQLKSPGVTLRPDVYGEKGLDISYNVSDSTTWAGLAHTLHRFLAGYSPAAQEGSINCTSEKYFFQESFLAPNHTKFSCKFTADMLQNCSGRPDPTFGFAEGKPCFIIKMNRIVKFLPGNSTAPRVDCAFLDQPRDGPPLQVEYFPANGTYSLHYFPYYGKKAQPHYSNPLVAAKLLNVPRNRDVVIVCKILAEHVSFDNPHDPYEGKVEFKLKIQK
Potassium-transporting ATPase (Sus scrofa, UniProt P18434+P19156), sequence (P19156 whole entry): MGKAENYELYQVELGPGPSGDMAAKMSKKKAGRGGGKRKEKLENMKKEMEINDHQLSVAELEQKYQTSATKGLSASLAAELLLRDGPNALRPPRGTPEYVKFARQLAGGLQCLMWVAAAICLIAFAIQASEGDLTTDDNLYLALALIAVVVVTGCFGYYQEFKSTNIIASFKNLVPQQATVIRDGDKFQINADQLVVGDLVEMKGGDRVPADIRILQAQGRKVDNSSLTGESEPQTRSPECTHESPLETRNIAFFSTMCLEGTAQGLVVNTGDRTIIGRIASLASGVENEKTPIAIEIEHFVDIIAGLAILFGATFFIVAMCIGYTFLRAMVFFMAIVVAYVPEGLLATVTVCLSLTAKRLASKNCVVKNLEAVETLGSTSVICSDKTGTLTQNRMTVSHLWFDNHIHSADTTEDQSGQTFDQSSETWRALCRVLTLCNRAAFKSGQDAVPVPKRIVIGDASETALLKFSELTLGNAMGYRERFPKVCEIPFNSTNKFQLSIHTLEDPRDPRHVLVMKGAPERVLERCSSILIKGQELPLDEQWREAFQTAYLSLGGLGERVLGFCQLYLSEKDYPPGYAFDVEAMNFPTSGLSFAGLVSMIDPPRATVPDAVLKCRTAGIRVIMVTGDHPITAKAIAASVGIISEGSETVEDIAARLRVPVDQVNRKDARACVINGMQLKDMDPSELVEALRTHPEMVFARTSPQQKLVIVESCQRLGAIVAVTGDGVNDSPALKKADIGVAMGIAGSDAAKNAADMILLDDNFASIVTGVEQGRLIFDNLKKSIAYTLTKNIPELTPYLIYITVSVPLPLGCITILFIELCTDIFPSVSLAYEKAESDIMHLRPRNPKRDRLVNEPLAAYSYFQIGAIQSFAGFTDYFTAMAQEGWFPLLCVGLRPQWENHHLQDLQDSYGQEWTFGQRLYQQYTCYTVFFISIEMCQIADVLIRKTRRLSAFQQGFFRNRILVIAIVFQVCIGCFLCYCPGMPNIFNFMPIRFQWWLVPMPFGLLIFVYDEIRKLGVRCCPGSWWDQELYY

[10] = biological target: Potassium-transporting ATPase (Sus scrofa, UniProt P19156); experiment: In vitro inhibition against H+/K+ ATPase from porcine gastric mucosal membrane vesicles; type: tissue-based, Gastric mucosa
Potassium-transporting ATPase (Sus scrofa, UniProt P19156), sequence (P18434 whole entry): as the sequence (P18434 whole entry) above
Potassium-transporting ATPase (Sus scrofa, UniProt P19156), sequence (P19156 whole entry): as the sequence (P19156 whole entry) above

[11] = biological target: T1, Potassium-transporting ATPase (Rattus norvegicus); experiment: Effect in vivo on gastric H+/K+ ATPase activity at 10 hrs following intraduodenal administration of 40 mg/Kg in rats; type: functional, organism-based; details: Stomach
[12] = biological target: T1, Potassium-transporting ATPase (Rattus norvegicus); experiment: Effect in vivo on gastric H+/K+ ATPase activity at 6 hrs following intraduodenal administration of 40 mg/Kg in rats; type: functional, organism-based; details: Stomach
[13] = biological target: T1, Potassium-transporting ATPase (Rattus norvegicus); experiment: Effect in vivo on gastric H+/K+ ATPase activity at 3 hrs following intraduodenal administration of 40 mg/Kg in rats; type: functional, organism-based; details: Stomach
[14] = biological target: T1, Potassium-transporting ATPase (Rattus norvegicus); experiment: Effect in vivo on gastric H+/K+ ATPase activity at 24 hrs following intraduodenal administration of 40 mg/Kg in rats; type: functional, organism-based; details: Stomach
[15] = biological target: T1, Potassium-transporting ATPase (Rattus norvegicus); experiment: Effect in vivo on gastric H+/K+ ATPase activity at 10 hrs following intraduodenal administration of 40 mg/Kg in rats injected intraperitoneally with 1 mg/Kg of cycloheximide; type: functional, organism-based; details: Stomach

Structure (SMILES) | inhibition [3] | IC50 [9] | IC50 [10] | other results
COc1ccc2[nH]c([S+]([O-])Cc3ncc(C)c(OC)c3C)nc2c1 (stereo not drawn) | 100% | – | – | Control [1]: 27.8%; Control [2]: 36.1%; Control [4]: 71.1%; Control [5]: 45.4%; Control [6]: 34.1%; Control [7]: 51.7%; Control [8]: 37.1%
CCN(CC)c1ccccc1C[S+]([O-])c1nc2c(n1-c1ncccc1C)CCC2 (stereo not drawn) | 53% | Not Active | – | –
CN(C)c1ccccc1C[S+]([O-])c1nc(-c2ccccc2)cn1C (stereo not drawn) | 0% | Not Active | – | –
[O-][S+](Cc1ccccc1-n1ccnc1)c1nccn1-c1ccccn1 (stereo not drawn) | 22% | Not Active | – | –
[O-][S+](Cc1ccccc1-n1cccc1)c1nccn1-c1ccccn1 (stereo not drawn) | 88% | Not Active | – | –
COc1cccnc1-n1ccnc1[S+]([O-])Cc1ccccc1N1CCCCC1 (stereo not drawn) | 62% | Not Active | – | –
CCN(CC)c1ccccc1C[S+]([O-])c1nccn1-c1ncccc1OC (stereo not drawn) | 94% | Not Active | – | –
CN(C)c1ccccc1C[S+]([O-])c1nccn1-c1ncccn1 (stereo not drawn) | 30% | Not Active | – | –
[O-][S+](Cc1ccccc1-n1cccc1)c1nc2c(n1-c1ccccn1)CCC2 (stereo not drawn) | 21% | Not Active | – | –
Cc1cccnc1-n1ccnc1[S+]([O-])Cc1ccccc1-n1cccc1 (stereo not drawn) | 47% | Not Active | – | –
Cc1cccnc1-n1c([S+]([O-])Cc2ccccc2N)nc2c1CCC2 (stereo not drawn) | 95% | – | > 100 µM | Control [11]: 79.6%; Control [2]: 95.4%; Control [12]: 69.2%; Control [13]: 46%; Control [14]: 88.9%; Control [15]: 72.9%; Control [5]: 48.8%
Cc1ccnc(-n2ccnc2[S+]([O-])Cc2ccccc2N(C)C)c1 (stereo not drawn) | 79% | – | 2.5 µM | –
Cc1cccnc1-n1ccnc1[S+]([O-])Cc1ccccc1N1CCCCC1 (stereo not drawn) | 82% | Not Active | – | –
CN(C)c1ccccc1C[S+]([O-])c1nc2c(n1Cc1ccccc1)CCC2 (stereo not drawn) | 42% | – | 28 µM | –
COc1cccnc1-n1ccnc1[S+]([O-])Cc1ccccc1-n1cccc1 (stereo not drawn) | 39% | Not Active | – | –
COc1cccnc1-n1ccnc1[S+]([O-])Cc1ccccc1N1CCOCC1 (stereo not drawn) | 85% | Not Active | – | –
CN(C)c1ccccc1C[S+]([O-])c1ncc(-c2ccccc2)n1Cc1ccccc1 (stereo not drawn) | 0% | Not Active | – | –
CN(C)c1ccccc1C[S+]([O-])c1nccn1-c1ccc(Cl)cn1 (stereo not drawn) | 0% | – | 13 µM | –
CCN(CC)c1ccccc1C[S+]([O-])c1nc2c(n1-c1ccncc1)CCC2 (stereo not drawn) | 0% | Not Active | – | –
COc1ccc(-n2ccnc2[S+]([O-])Cc2ccccc2N(C)C)nc1 (stereo not drawn) | 98% | – | 12 µM | –
CN(C)c1ccccc1C[S+]([O-])c1nccn1-c1ccncc1 (stereo not drawn) | 100% | – | 36 µM | –
Cc1cccnc1-n1ccnc1[S+]([O-])Cc1ccccc1N1CCOCC1 (stereo not drawn) | 100% | Not Active | – | –
COc1cccnc1-n1ccnc1[S+]([O-])Cc1ccccc1NC(C)=O (stereo not drawn) | 90% | Not Active | – | –
Nc1ccccc1C[S+]([O-])c1nccn1-c1ccccn1 (stereo not drawn) | 29% | – | 27 µM | –
CN(C)c1ccccc1C[S+]([O-])c1ncc[nH]1 (stereo not drawn) | 80% | – | 32 µM | –
Cc1cccnc1-n1ccnc1[S+]([O-])Cc1ccccc1N (stereo not drawn) | 98% | – | 98 µM | –
CNc1ccccc1C[S+]([O-])c1nc2c(n1-c1ncccc1C)CCC2 (stereo not drawn) | 90% | – | 81 µM | –
CN(C)c1ccccc1C[S+]([O-])c1ncc(-c2ccccc2)n1-c1ccccc1 (stereo not drawn) | 0% | Not Active | – | –

Structure (SMILES) | inhibition [3] | IC50 [9] | IC50 [10] | other results
CN(C)c1ccccc1C[S+]([O-])c1nccn1-c1ccc(N)cn1 (stereo not drawn) | 48% | – | 5.7 µM | –
[O-][S+](Cc1ccccc1N1CCCCC1)c1nccn1-c1ccccn1 (stereo not drawn) | 100% | Not Active | – | –
CN(C)c1ccccc1C[S+]([O-])c1nccn1Cc1ccccn1 (stereo not drawn) | 100% | – | 46 µM | –
CN(C)c1ccccc1C[S+]([O-])c1nc(-c2ccccc2)cn1Cc1ccccc1 (stereo not drawn) | 0% | Not Active | – | –
CN(C)c1ccccc1C[S+]([O-])c1nc(-c2ccccc2)c(-c2ccccc2)[nH]1 (stereo not drawn) | 0% | Not Active | – | –
CN(C)c1ccccc1C[S+]([O-])c1ncc(-c2ccccc2)n1C (stereo not drawn) | 0% | Not Active | – | –
CN(C)c1ccccc1C[S+]([O-])c1nccn1-c1nccc2ccccc12 (stereo not drawn) | 65% | – | 43 µM | –
CCN(CC)c1ccccc1C[S+]([O-])c1nc2c(n1Cc1ccccn1)CCC2 (stereo not drawn) | 38% | Not Active | – | –
COc1cccnc1-n1ccnc1[S+]([O-])Cc1ccccc1N(C)C (stereo not drawn) | 100% | – | 33 µM | –
CN(C)c1ccccc1C[S+]([O-])c1nccn1-c1ccccc1 (stereo not drawn) | 9% | – | 68 µM | –
COc1cccnc1-n1c([S+]([O-])Cc2ccccc2N(C)C)nc2c1CCC2 (stereo not drawn) | 73% | – | 95 µM | –
CC(=O)Nc1ccccc1C[S+]([O-])c1nccn1-c1ccccn1 (stereo not drawn) | 99% | Not Active | – | –
CN(C)c1ccccc1C[S+]([O-])c1nccn1-c1cccnc1 (stereo not drawn) | 30% | Not Active | – | –
CN(C)c1ccccc1C[S+]([O-])c1nccn1-c1cnccn1 (stereo not drawn) | 30% | Not Active | – | –
Cc1cc(C)nc(-n2ccnc2[S+]([O-])Cc2ccccc2N(C)C)c1 (stereo not drawn) | 0% | – | 11 µM | –
CN(C)c1ccccc1C[S+]([O-])c1nccn1-c1ncccc1OCc1ccccc1 (stereo not drawn) | 34% | – | 16 µM | –
[O-][S+](Cc1ccccc1N1CCOCC1)c1nccn1-c1ccccn1 (stereo not drawn) | 90% | Not Active | – | –
[O-][S+](Cc1ccccc1-n1cccn1)c1nccn1-c1ccccn1 (stereo not drawn) | 0% | Not Active | – | –
Cc1cccnc1-n1c([S+]([O-])Cc2ccccc2N(C)C)nc2c1CCC2 (stereo not drawn) | 87% | – | > 100 µM | –
Cc1cccc(-n2ccnc2[S+]([O-])Cc2ccccc2N(C)C)n1 (stereo not drawn) | 57% | – | 14 µM | –
CC(=O)Nc1ccccc1C[S+]([O-])c1nc2c(n1-c1ccccn1)CCC2 (stereo not drawn) | 75% | Not Active | – | –
[O-][S+](Cc1ccccc1N1CCOCC1)c1nc2c(n1-c1ccccn1)CCC2 (stereo not drawn) | 80% | Not Active | – | –
COc1cccc(-n2ccnc2[S+]([O-])Cc2ccccc2N(C)C)n1 (stereo not drawn) | 0% | – | 13 µM | –
CN(C)c1ccccc1C[S+]([O-])c1nccn1-c1ccccn1 (stereo not drawn) | 76% | – | 5.5 µM | –
CCN(CC)c1ccccc1C[S+]([O-])c1nc2c(n1-c1cccnc1)CCC2 (stereo not drawn) | 0% | Not Active | – | –
CC(C)Oc1cccnc1-n1ccnc1[S+]([O-])Cc1ccccc1N(C)C (stereo not drawn) | 69% | – | 16 µM | –
CC(=O)Nc1ccc(-n2ccnc2[S+]([O-])Cc2ccccc2N(C)C)nc1 (stereo not drawn) | 64% | – | 20 µM | –
